Entries after “also recorded” stand apart in the source; their conditions may differ.
Legend:
IκBζ = experiment: Ikb-ζ protein in LPS-stimulated human monocytes (western blot); assay type: cell-based; conditions: human monocytes, DI 12 h, LPS 100 ng/ml
Method: (§1) Cells were lysed in RIPA Lysis Buffer System (Santa Cruz) and heat-denatured at 95° C. for 5 min in reducing sample buffer (BioRad). Proteins were separated on 4%-20% polyacrylamide gradient gels (BioRad) and transferred onto 0.45 μm pore size PVDF membranes (Millipore). Non-specific binding was blocked with 5% skim milk (or 5% BSA when phospho-proteins were analyzed), and membranes were probed with primary antibodies specific to Nrf2 (#12721), HO-1 (#70081), IκBζ (mouse specific, #93726), IκBζ(#9244), ATF3 (#D2Y5W), IRAK1 (#4504; sensitivity of IRAK1 detection diminishes upon IRAK1 K63 ubiquitination), phospho-IKK (Ser176/180, #2697), p62/SQSTM1 (#5114), phospho-eIF2α (Ser51, #9721), eIF2α (#5324) from Cell Signaling; GAPDH (sc-25778), IκBα (sc-1643), ATF3 (sc-188), SDHA (sc-166909) from Santa Cruz; NQO1 (ab28947) from Abeam, followed by incubation with anti-rabbit-HRP (1:10,000; sc-2030) or anti-mouse-HRP (1:10,000; sc-2031) from Santa Cruz and Clarity western ECL substrate (Bio-Rad). […]
Blood from healthy donors was acquired from LRS chambers supplied by the Mississippi Valley Regional Blood Center. […] After extensive washes to allow removal of non-adherent cells, monocytes (>95% purity) were harvested, counted and 5×10^5 cells were plated per well in 24-well plates. […]

ATF3 = ATF3 protein expression (western blot); assay type: cell-based, mouse; conditions: BMDMs, DI, also on Nrf2−/− background
Method: BMDM were prepared from 6- to 12-week-old mice as described 1 and cultured in RMPI-1640 medium supplemented with 10% fetal bovine serum (FBS), 2 mM L-glutamine, and 100 U/mL penicillin-streptomycin and mouse recombinant M-CSF ([…], Peprotech). For experiments, cells were seeded at concentration 10^6 cells/mL in tissue culture plates of various formats. The cells were treated with DI (250 μM (unless stated otherwise), cat #592498, Sigma), DMF (50 μM (unless stated otherwise), cat #242926, Sigma), 3-(ethoxycarbonyl)but-3-enoic acid (3MI, 5 μM, Aris Pharmaceuticals Inc.), 4-ethoxy-2-methylene-4-oxobutanoic acid (MI, Aris Pharmaceuticals Inc.) for 12 h and activated with lipopolysaccharide (LPS; 100 ng/mL; E. coli 0111:B4, Sigma) for 1 h or as indicated. In some experiments cells were stimulated with combination of LPS (20 ng/mL) and IFN-γ (50 ng/mL; Peprotech). In some experiments cells were treated with α-tocopherol (AT, 10 μM; Sigma), MitoTEMPO (MT, 500 μM; Sigma), N-acetylcysteine (NAC, 1 mM, Sigma), ethylester of GSH (EtGSH; 1 mM, Santa Cruz) or buthionene sulfoximine (BSO, 500 μM, Sigma) alone or in combination with DI for 12 h. […]
as §1, with “Proteins were separated on 4%-20% polyacrylamide gradient gels (BioRad) and transferred onto 0.45 μm pore size PVDF membranes (Millipore).” left out

Ikb-ζ = experiment: IL17A-mediated Ikb-ζ induction in HaCat cells (western blot); assay type: cell-based, human; conditions: DI 12 h at non-toxic concentrations, IL17A 100 ng/ml up to 4 h
STAT3 = STAT3 activation in IL17A-stimulated HaCat cells (western blot); assay type: cell-based, human; conditions: DI 12 h
EAE = EAE model of multiple sclerosis; assay type: in vivo, mouse; conditions: daily DI administration
BMDMs = experiment: Glutathione (GSH) measurement in BMDMs; assay type: cell-based, mouse; conditions: DI 250 μM
Method: Total GSH concentration in cells was determined by GSH/GSSH Ratio Detection Assay Kit (Abeam) according to manufacturer protocol. Briefly, 106 BMDMs were lysed in 100 μL of 0.5% NP-40 in PBS, pH 6. Samples were deproteinized using trichloroacetic acid and neutralized by addition of 1M NaHCO3 to achieve pH 4-6. Collected extracts were diluted with supplied assay buffer and directly used for GSH measurement.

Structure (SMILES): C=C(CC(=O)OC)C(=O)OC [DI, dimethyl itaconate]
- LPS-induced Ikb-ζ protein levels (IκBζ): decreased Ikb-ζ protein levels; also recorded: completely abolished
- ATF3 protein (ATF3): upregulated
- IL17A-mediated Ikb-ζ induction (Ikb-ζ): almost completely inhibited
- STAT3 activation (STAT3): effective to inhibit STAT3 activation
- clinical development of EAE (EAE): ameliorated; also recorded: prevented clinical development of EAE
- GSH/GSSG ratio (BMDMs): substantial drop
- cellular GSH (BMDMs): substantial drop in cellular GSH; also recorded: substantial drop of cellular GSH concentration

— US20200375929A1, “METHODS AND COMPOSITIONS FOR THE TREATMENT OF DISEASES ASSOCIATED WITH CANCER, INFLAMMATION, OR IMMUNE RESPONSE” (Washington University, priority 2017, published 2020)
